{
  "source": "patent US20100137206A1",
  "about": "“NOVEL LIGAND GUIDED BLOCK COPOLYMERS FOR TARGETED DRUG DELIVERY” (priority 2006, published 2010)",
  "tested_on": "B16-F10 cells",
  "experiment": "MTT cytotoxicity of DOX-containing micelles",
  "assay_type": "cell-based",
  "details": "for IC50: read-out: IC50 (μM) of DOX equivalent",
  "protocol": "Briefly, 4000 cells were plated in 96-well plates and incubated for 24 h to allow the cells to attach. […] Living cells metabolize MTT to a dark formazan dye. The cell culture media was removed by aspiration and replaced with 200 μL DMSO. The absorbance was measured spectrophotometrically using a microplate reader at dual wavelengths of 570 nm and 650 nm. The data reported represent the means of triplicate measurement.",
  "note": "Like-named read-outs stand apart in the source and are kept apart here.",
  "data": [
    {"molecule": "COc1cccc2c1C(=O)c1c(O)c3c(c(O)c1C2=O)C[C@@](O)(C(=O)CO)C[C@@H]3O[C@H]1C[C@H](N)[C@H](O)[C@H](C)O1", "note": "[Free DOX, doxorubicin, reference compound]", "values": [
      {"measurement": "IC50", "setting": "24 h incubation", "value": 0.417, "unit": "µM"},
      {"measurement": "IC50", "setting": "48 h incubation", "value": 0.204, "unit": "µM"}
    ]},
    {"molecule": "doxorubicin-conjugated acetal polyethylene oxide)-block-poly(caprolactone) [Acetal-PEO-b-PCL(DOX)]", "values": [
      {"measurement": "fold difference of IC50 in comparison to free DOX", "setting": "24 h incubation", "value": 14.3, "unit": "fold"},
      {"measurement": "IC50", "setting": "24 h incubation", "value": 5.95, "unit": "µM"},
      {"measurement": "fold difference of IC50 in comparison to free DOX", "setting": "48 h incubation", "value": 6.3, "unit": "fold"},
      {"measurement": "IC50", "setting": "48 h incubation", "value": 1.28, "unit": "µM"}
    ]}
  ]
}
